In patent publication US12479821B2 (MBD CO., LTD., priority 2019, dated 2025):

biological target: T1, CYP4A (Homo sapiens, UniProt Q02928); experiment: CYP4A enzyme assay (Luciferin-ME luminescence, CYP4A bactosome); format: biochemical; settings: compound concentration 5 μM; 25%-50%; read-out: % Inhibition 25%-50%
T1 construct: host or cells: bactosome, i.e. bacterial membrane preparation (own knowledge of the term)
T1 sequence (Q02928 5-519): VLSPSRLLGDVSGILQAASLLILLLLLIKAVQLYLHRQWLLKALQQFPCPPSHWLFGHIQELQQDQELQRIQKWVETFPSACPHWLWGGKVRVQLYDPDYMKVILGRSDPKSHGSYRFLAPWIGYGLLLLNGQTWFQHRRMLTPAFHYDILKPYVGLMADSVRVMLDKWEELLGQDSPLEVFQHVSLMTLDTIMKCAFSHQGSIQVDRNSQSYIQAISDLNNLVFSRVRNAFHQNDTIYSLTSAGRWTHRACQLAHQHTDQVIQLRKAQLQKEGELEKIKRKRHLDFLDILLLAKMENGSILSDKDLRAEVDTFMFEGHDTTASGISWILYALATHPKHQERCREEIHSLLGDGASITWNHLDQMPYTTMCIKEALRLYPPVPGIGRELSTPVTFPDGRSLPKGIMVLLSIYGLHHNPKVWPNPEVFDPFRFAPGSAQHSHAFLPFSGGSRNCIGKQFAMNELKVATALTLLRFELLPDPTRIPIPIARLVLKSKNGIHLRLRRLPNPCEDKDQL
Experimental: A commercially available reagent was used for the reagent used in the experiment, and it was manufactured and used if necessary. The device used for activity measurement was EnVision of PerkinElmer or SpectraMax of MOLECULAR DEVICES.
First, CYP4A bactosome and synthetic compound (5 μM) were mixed in assay buffer (100 mM KPO4, 0.1% BSA, 1 mM DTT) in a 384-well plate (white opaque ploystyrene nontreated flat-bottom well), and then reacted at room temperature for 15 minutes. After adding 5 mM Luciferin-ME and NADPH Regeneration system (10× sol.A, 20× sol.B in assay buffer, Cat. Number: V865B, Promega), leave it at room temperature for 30 minutes to allow the CYP4A reaction to occur sufficiently, by adding the Luciferin Detection reagent, the CYP4A reaction was finished, luminescence reaction was induced, and the reaction was carried out at room temperature for 15 minutes. The degree of inhibition of CYP4A activity was measured by comparing the luminescence values from each well with a microplate reader.

| Compound | inhibition at 5 µM |
| --- | --- |
| CCc1ccc(S(=O)(=O)N2CCCC(C(=O)N3CCN(c4cc(C)nc5ccccc45)CC3)C2)cc1 (stereo not shown) [Formula 23, (1-(4-ethylphenylsulfonyl)piperidin-3-yl) (4-(2-methylquinolin-4-yl)piperazin-1-yl) methanone] | 25 to 50% |

same assay, conditions: compound concentration 5 μM; 75% or more; read-out: % Inhibition 75% or more

| Compound | inhibition at 5 µM |
| --- | --- |
| O=C(C1CCCN(S(=O)(=O)c2cccc([N+](=O)[O-])c2)C1)N1CCN(c2ccnc3cc(F)ccc23)CC1 (stereo not shown) [Formula 51, (4-(7-fluoroquinolin-4-yl)piperazin-1-yl) (1-(3-nitrophenylsulfonyl)piperidin-3-yl) methanone] | ≥ 75% |
| CC(=O)Nc1ccc(S(=O)(=O)N2CCC[C@@H](C(=O)N3CCN(c4cc(C)nc5ccccc45)CC3)C2)cc1 [Formula 16, (R)—N-(4-((3-(4-(2-methylquinolin-4-yl)piperazine-1-carbonyl)piperidin-1-yl)sulfonyl)phenyl) acetamide] | ≥ 75% |
| O=C(C1CCCN(S(=O)(=O)c2ccc(F)cc2)C1)N1CCN(c2ccnc3ccccc23)CC1 (stereo not shown) [Formula 75, (1-(4-fluorophenylsulfonyl)piperidin-3-yl) (4-(quinolin-4-yl)piperazin-1-yl) methanone] | ≥ 75% |
| Cc1cc(N2CCN(C(=O)C3CCCN(S(=O)(=O)c4cccc([N+](=O)[O-])c4)C3)CC2)c2ccccc2n1 (stereo not shown) [Formula 28, (4-(2-methylquinolin-4-yl)piperazin-1-yl) (1-(3-nitrophenylsulfonyl)piperidin-3-yl) methanone] | ≥ 75% |
| O=C(C1CCCN(S(=O)(=O)c2ccc([N+](=O)[O-])cc2)C1)N1CCN(c2ccnc3ccccc23)CC1 (stereo not shown) [Formula 81, (1-(4-nitrophenylsulfonyl)piperidin-3-yl) (4-(quinolin-4-yl)piperazin-1-yl) methanone] | ≥ 75% |
| O=C(C1CCCN(S(=O)(=O)c2ccc([N+](=O)[O-])cc2)C1)N1CCN(c2ccnc3cc(Cl)ccc23)CC1 (stereo not shown) [Formula 117, (4-(7-chloroquinolin-4-yl)piperazin-1-yl) (1-(4-nitrophenylsulfonyl)piperidin-3-yl) methanone] | ≥ 75% |
| O=C([C@@H]1CCCN(S(=O)(=O)c2cccc([N+](=O)[O-])c2)C1)N1CCN(c2ccnc3cc(F)ccc23)CC1 [Formula 60, (R)-(4-(7-fluoroquinolin-4-yl)piperazin-1-yl) (1-(3-nitrophenylsulfonyl)piperidin-3-yl) methanone] | ≥ 75% |
| CN(C)c1ccc(S(=O)(=O)N2CCCC(C(=O)N3CCN(c4ccnc5cc(Cl)ccc45)CC3)C2)cc1 (stereo not shown) [Formula 4, (4-(7-chloroquinolin-4-yl)piperazin-1-yl) (1-((4-(dimethylamino)phenyl)sulfonyl)piperidin-3-yl) methanone] | ≥ 75% |
| Cc1cc(N2CCN(C(=O)C3CCCN(S(=O)(=O)c4ccc(O)cc4)C3)CC2)c2ccccc2n1 (stereo not shown) [Formula 32, (1-(4-hydroxyphenylsulfonyl)piperidin-3-yl) (4-(2-methylquinolin-4-yl)piperazin-1-yl) methanone] | ≥ 75% |

same assay, conditions: compound concentration 5 μM; '50%-75%'; read-out: % Inhibition 50%-75%

| Compound | inhibition at 5 µM |
| --- | --- |
| Cc1cc(N2CCN(C(=O)C3CCCN(S(=O)(=O)c4ccc(Cl)cc4)C3)CC2)c2ccccc2n1 (stereo not shown) [Formula 25, (1-(4-chlorophenylsulfonyl)piperidin-3-yl) (4-(2-methylquinolin-4-yl)piperazin-1-yl) methanone] | 50 to 75% |
| CN(C)C(=O)c1ccc(S(=O)(=O)N2CCCC(C(=O)N3CCN(c4ccnc5cc(Cl)ccc45)CC3)C2)cc1 (stereo not shown) [Formula 99, 4-(3-(1-(7-chloroquinolin-4-yl)piperazine-4-carbonyl)piperidin-1-ylsulfonyl)-N,N-dimethylbenzamide] | 50 to 75% |
| COc1ccc2c(N3CCN(C(=O)C4CCCN(S(=O)(=O)c5ccc(NC(C)=O)cc5)C4)CC3)ccnc2c1 (stereo not shown) [Formula 87, N-(4-(3-(1-(7-methoxyquinolin-4-yl)piperazine-4-carbonyl)piperidin-1-ylsulfonyl)phenyl) acetamide] | 0% |
